EC50 data for 35 compounds are collected here from patent publication US12528801B2 (Givaudan SA, priority 2019, dated 2026).

In the test the target is T1, hTRPM8 (Homo sapiens, UniProt Q7Z2W7).
T1 construct: expressed in transfected cells
Briefly: Assay on TRPM8 modulators: calcium imaging (Fluo-4, Flexstation) in HEK293 cell line stably expressing hTRPM8. Type of test: cell-based. To be noted: HEK293 cells stably expressing hTRPM8; calcium influx, Fluo-4, Flexstation 3; sigmoidal dose-response fit. The method, then:
A HEK293 cell line stably expressing hTRPM8 was generated according to Klein of at, (Chem. Senses 36: […], 2011) and receptor activation was monitored by calcium imaging in a Flexstation. For Ca-imaging assays of TRPM8 channel activation, cells were seeded on day 0 at a density of 12000 cells per well in Dulbecco's modified Eagle medium (DMEM) containing 9% foetal bovine serum in black, clear bottom 96-well plates that had been coated with 0.001% polyethyleneimine (molecular weight=60 000, Acros Organics). On day 2, agonists were evaluated via calcium imaging using Fluo-4. Briefly, growth medium was discarded, and the cells were incubated in the dark for 1 h at 37° C. in 50 μL loading buffer consisting of 2.7 μM Fluo-4 AM (Invitrogen) and […] probenecid (Sigma-Aldrich) in DMEM (without serum). After incubation, the plates were washed five times with 100 μL of assay buffer (in mM: 130 NaCl, 5 KCl, 10 HEPES, 2 CaCl2, and 10 glucose, pH7.4.) and further incubated in the dark at room temperature for 30 min. The cells were then washed five times with 100 μL assay buffer and then calcium influx to serial dilutions of inventive compounds were measured in a Flexstation 3 (Molecular Devices). Receptor activation was initiated following addition of 20 μl of a 10-fold concentrated ligand stock solution, which is also prepared in assay buffer. Fluorescence was continuously monitored for 15 seconds prior to ligand addition and for 105 seconds after ligand addition, for a total of 120 seconds. Maximal receptor activation in relation to solvent control and relative to 31.6 μM menthol is determined. Data from serial dilutions were processed with a KNIME workflow to fit a sigmoidal dose-response curve and to extrapolate […].

T1 sequence (Q7Z2W7 whole entry): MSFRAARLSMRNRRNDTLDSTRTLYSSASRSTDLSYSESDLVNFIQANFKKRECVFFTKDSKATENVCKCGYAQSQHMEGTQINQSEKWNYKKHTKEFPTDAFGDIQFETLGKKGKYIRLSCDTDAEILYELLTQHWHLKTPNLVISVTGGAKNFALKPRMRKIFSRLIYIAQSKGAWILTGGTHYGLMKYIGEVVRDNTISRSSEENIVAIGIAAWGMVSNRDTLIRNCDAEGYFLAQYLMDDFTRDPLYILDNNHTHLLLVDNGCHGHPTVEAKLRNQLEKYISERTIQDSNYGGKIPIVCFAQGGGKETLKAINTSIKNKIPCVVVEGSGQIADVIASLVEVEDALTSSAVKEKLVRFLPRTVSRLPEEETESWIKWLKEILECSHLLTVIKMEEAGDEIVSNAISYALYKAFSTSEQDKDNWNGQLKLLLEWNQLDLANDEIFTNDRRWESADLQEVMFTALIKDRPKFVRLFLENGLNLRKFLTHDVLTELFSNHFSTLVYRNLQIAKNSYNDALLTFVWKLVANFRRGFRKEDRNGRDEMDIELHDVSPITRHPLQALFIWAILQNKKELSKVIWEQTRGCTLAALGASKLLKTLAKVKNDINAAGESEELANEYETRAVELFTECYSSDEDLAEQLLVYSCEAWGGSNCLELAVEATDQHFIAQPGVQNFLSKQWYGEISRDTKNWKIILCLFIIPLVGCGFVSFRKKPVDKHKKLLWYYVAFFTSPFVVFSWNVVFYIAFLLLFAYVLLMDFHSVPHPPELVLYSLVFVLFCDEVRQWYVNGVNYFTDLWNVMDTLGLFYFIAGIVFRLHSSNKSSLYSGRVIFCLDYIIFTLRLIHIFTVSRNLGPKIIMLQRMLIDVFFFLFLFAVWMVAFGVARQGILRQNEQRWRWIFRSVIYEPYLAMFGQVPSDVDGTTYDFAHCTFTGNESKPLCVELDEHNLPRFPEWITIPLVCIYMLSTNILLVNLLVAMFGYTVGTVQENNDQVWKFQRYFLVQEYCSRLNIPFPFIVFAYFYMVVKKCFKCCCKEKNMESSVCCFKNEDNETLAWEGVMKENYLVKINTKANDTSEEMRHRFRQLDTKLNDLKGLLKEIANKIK

With `CSC(C)C(=O)N1CCCCC1c1ncc(-c2ccc(CN)cc2)[nH]1` (centres unmarked) [Compound 71, 1-(2-(5-(4-(aminomethyl)phenyl)-1H-imidazol-2-yl)piperidin-1-yl)-2-(methylthio)propan-1-one], the EC50 (as a rule, the concentration at which the effect is half-maximal) is below 50 nM.
The result for `CSC(C)C(=O)N1CCCCC1c1ncc(-c2ccc(N(C)C)cc2)[nH]1` (centres unmarked) [Compound 72, 1-(2-(5-(4-(dimethylamino)phenyl)-1H-imidazol-2-yl)piperidin-1-yl)-2-(methylthio)propan-1-one] reads 50 to 300 nM; that for `CSC(C)C(=O)N1CCCCC1c1ncc(-c2ccc(CO)cc2)[nH]1` (centres unmarked) [Compound 73, 1-(2-(5-(4-(hydroxymethyl)phenyl)-1H-imidazol-2-yl)piperidin-1-yl)-2-(methylthio)propan-1-one], 300 to 1000 nM; that for `CSC(C)C(=O)N1CCCCC1c1ncc(-c2ccc(C(C)=O)cc2)[nH]1` (centres unmarked) [Compound 74, 1-(2-(5-(4-acetylphenyl)-1H-imidazol-2-yl)piperidin-1-yl)-2-(methylthio)propan--one], below 50 nM.
As for `CSC(C)C(=O)N1CCCCC1c1ncc(-c2ccc(N)cc2)[nH]1` (centres unmarked) [Compound 75, 1-(2-(5-(4-aminophenyl)-1H-imidazol-2-yl)piperidin-1-yl)-2-(methylthio)propan-1-one], the figure is below 50 nM; as for `CSC(C)C(=O)N1CCCCC1c1ncc(-c2ccc(Cl)c(F)c2)[nH]1` (centres unmarked) [Compound 76, 1-(2-(5-(4-chloro-3-fluorophenyl)-1H-imidazol-2-yl)piperidin-1-yl)-2-(methylthio)propan-1-one], below 50 nM; as for `CSC(C)C(=O)N1CCCCC1c1ncc(-c2ccc(Cl)cc2)[nH]1` (centres unmarked) [Compound 77, 1-(2-(5-(4-chlorophenyl)-1H-imidazol-2-yl)piperidin-1-yl)-2-(methyltbio)propan-1-one], below 50 nM.
As for `CCc1ccc(-c2cnc(C3CCCCN3C(=O)C(C)SC)[nH]2)cc1` (centres unmarked) [Compound 78, 1-(2-(5-(4-ethylphenyl)-1H-imidazol-2-yl)piperidin-1-yl)-2-(methylthio)propan-1-one], the figure is below 50 nM; as for `CSC(C)C(=O)N1CCCCC1c1nnc(-c2ccc(F)cc2)[nH]1` (centres unmarked) [Compound 79, 1-(2-(5-(4-fluorophenyl)-4H-1,2,4-triazol-3-yl)piperidin-1-yl)-2-(methylthio)propan-1-one], below 50 nM; as for `COc1ccc(-c2cnc(C3CCCCN3C(=O)C(C)SC)[nH]2)c(C)c1` (centres unmarked) [Compound 80, 1-(2-(5-(4-methoxy-2-methylphenyl)-1H-imidazol-2-yl)piperidin-1-yl)-2-(methylthio)propan-1-one], below 50 nM.
Regarding `COc1ccc(-c2cnc(C3CCCCN3C(=O)C(C)SC)[nH]2)cc1` (centres unmarked) [Compound 81, 1-(2-(5-(4-methoxyphenyl)-1H-imidazol-2-yl)piperidin-1-yl)-2-(methylthio)propan-1-one], the EC50 was below 50 nM.
As for `CSc1cc(C)c(-c2cnc(C3CCCCN3C(=O)C(C)SC)[nH]2)cn1` (centres unmarked) [Compound 82, 1-(2-(5-(4-methyl-6-(methylthio)pyridin-3-yl)-1H-imidazol-2-yl)piperidin-1-yl)-2-(methylthio)propan-1-one], the figure is 300 to 1000 nM.
With `COCc1cc(-c2cnc(C3CCCCN3C(=O)C(C)SC)[nH]2)cs1` (centres unmarked) [Compound 83, 1-(2-(5-(5-(methoxymethyl)thiophen-3-yl)-1H-imidazol-2-yl)piperidin-1-yl)-2-(methylthio)propan-1-one], the EC50 was in the range of 50 to 300 nM.
As for `COc1ccc(-c2cnc(C3CCCCN3C(=O)C(C)SC)[nH]2)cn1` (centres unmarked) [Compound 84, 1-(2-(5-(6-methoxypyridin-3-yl)-1H-imidazol-2-yl)piperidin-1-yl)-2-(methylthio)propan-1-one], the figure is 50 to 300 nM.
As to `CSC(C)C(=O)N1CCCCC1c1ncc(-c2ccc3c(c2)OCO3)[nH]1` (centres unmarked) [Compound 85, 1-(2-(5-(benzo[d][1,3]dioxol-5-yl)-1H-imidazol-2-yl)piperidin-1-yl)-2-(methylthio)propan-1-one], the EC50 is below 50 nM.
For the compound `CCC(=O)N1CCCCC1c1ncc(-c2ccc(C)cc2)[nH]1` (centres unmarked) [Compound 86, 1-(2-(5-(p-tolyl)-1H-imidazol-2-yl)piperidin-1-yl)propan-1-one], the EC50 lay within 50 to 300 nM.
In the case of `CSC(C)C(=O)N1CCCCC1c1ncc(Cc2ccccc2)[nH]1` (centres unmarked) [Compound 87, 1-(2-(5-benzyl-1H-imidazol-2-yl)piperidin-1-yl)-2-(methylthio)propan-1-one], the EC50 lay in the range of 1000 to 35000 nM.
The result for `CSC(C)C(=O)N1CCCCC1c1ncc(Br)[nH]1` (centres unmarked) [Compound 88, 1-(2-(5-bromo-1H-imidazol-2-yl)piperidin-1-yl)-2-(methylthio)propan-1-one] reads 300 to 1000 nM; that for `CSC(C)C(=O)N1CCCCC1c1ncc(-c2ccccc2C#N)[nH]1` (centres unmarked) [Compound 89, 2-(2-(1-(2-(methylthio)propanoyl)piperidin-2-yl)-1H-imidazol-5-yl)benzonitrile], 300 to 1000 nM.
As to `Cc1ccc(C(C)C(=O)N2CCCCC2c2nc(-c3ccccc3)c[nH]2)o1` (centres unmarked) [Compound 91, 2-(5-methylfuran-2-yl)-1-(2-(4-phenyl-1H-imidazol-2-yl)piperidin-1-yl)propan-1-one], the EC50 is 50 to 300 nM.
`C=CCSC(C)C(=O)N1CCCCC1c1ncc(-c2ccc(C)cc2)[nH]1` (centres unmarked) [Compound 92, 2-(allylthio)-1-(2-(5-(p-tolyl)-1H-imidazol-2-yl)piperidin-1-yl)propan-1-one]: the concentration for a half-maximal effect (EC50) is below 50 nM.
Consider `CCC(C(=O)N1CCCCC1c1nc(-c2ccccc2)c[nH]1)N(C)C` (centres unmarked) [Compound 93, 2-(dimethylamino)-1-(2-(4-phenyl-1H-imidazol-2-yl)piperidin-1-yl)butan-1-one], for which the EC50 was in the range of 1000 to 35000 nM.
With `C[C@H](C(=O)N1CCCCC1c1nc(-c2ccccc2)c[nH]1)N(C)C` (stereo partly drawn) [Compound 94, (2R)-2-(dimethylamino)-1-(2-(4-phenyl-1H-imidazol-2-yl)piperidin-1-yl)propan-1-one], the EC50 fell in the range of 300 to 1000 nM.
As to `O=C(Cc1ccco1)N1CCCCC1c1nc(-c2ccccc2)c[nH]1` (centres unmarked) [Compound 96, 2-(furan-2-yl)-1-(2-(4-phenyl-1H-imidazol-2-yl)piperidin-1-yl)ethan-1-one], the EC50 fell in the range of 1000 to 35000 nM.
Regarding `CC(C(=O)N1CCCCC1c1nc(-c2ccccc2)c[nH]1)c1ccco1` (centres unmarked) [Compound 97, 2-(furan-2-yl)-1-(2-(4-phenyl-1H-imidazol-2-yl)piperidin-1-yl)propan-1-one], the EC50 is 50 to 300 nM.
Consider `O=C(Cc1ccoc1)N1CCCCC1c1nc(-c2ccccc2)c[nH]1` (centres unmarked) [Compound 98], for which the EC50 was in the range of 50 to 300 nM.
The result for `Cc1ccc(-c2cnc(C3CCCCN3C(=O)C(C)c3ccoc3)[nH]2)cc1` (centres unmarked) [Compound 99, 2-(furan-3-yl)-1-(2-(5-(p-tolyl)-1H-imidazol-2-yl)piperidin-1-yl)propan-1-one] reads below 50 nM; that for `CNCC(=O)Nc1ccc(-c2cnc(C3CCCCN3C(=O)C(C)SC)[nH]2)cc1` (centres unmarked) [Compound 100, 2-(methylamino)-N-(4-(2-(1-(2-(methylthio)propanoyl)piperidin-2-yl)-1H-imidazol-5-yl)phenyl)acetamide], 50 to 300 nM.
As for `Cc1ccc(-c2cnc(C3CCCCN3C(=O)C(C)[S+](C)[O-])[nH]2)cc1` (centres unmarked) [Compound 101, 2-(methylsulfinyl)-1-(2-(5-(p-tolyl)-1H-imidazol-2-yl)piperidin-1-yl)propan-1-one], the figure is 50 to 300 nM; as for `CS(=O)(=O)CC(=O)N1CCCCC1c1nc(-c2ccccc2)c[nH]1` (centres unmarked) [Compound 102, 2-(methylsulfonyl)-1-(2-(4-phenyl-1H-imidazol-2-yl)piperidin-1-yl)ethan-1-one], 1000 to 35000 nM; as for `CC(C(=O)N1CCCCC1c1nc(-c2ccccc2)c[nH]1)S(C)(=O)=O` (centres unmarked) [Compound 103, 2-(methylsulfonyl)-1-(2-(4-phenyl-1H-imidazol-2-yl)piperidin-1-yl)propan-1-one], 1000 to 35000 nM.
Regarding `CSC(C)C(=O)N1CCCCC1c1nnn(-c2ccc(C)cc2)n1` (centres unmarked) [Compound 104, 2-(methylthio)-1-(2-(2-(p-toly)-2H-tetrazol-5-yl)piperidin-1-yl)propan-1-one], the half-maximal effective concentration (EC50) was below 50 nM.
Turning to `CSC(C)C(=O)N1CCCCC1c1nc(-c2ccccc2)no1` (centres unmarked) [Compound 105, 2-(methylthio)-1-(2-(3-phenyl-1,2,4-oxadiazol-5-yl)piperidin-1-yl)propan-1-one], the EC50 was 300 to 1000 nM.
For the compound `CSC(C)C(=O)N1CCCCC1c1nc(-c2cnn(C(F)(F)F)c2)c[nH]1` (centres unmarked) [Compound 106, 2-(methylthio)-1-(2-(4-(1-(trifluoromethyl)-1H-pyrazol-4-yl)-1H-imidazol-2-yl)piperidin-1-yl)propan-1-one], the EC50 was 50 to 300 nM.
As for `CSC(C)C(=O)N1CCCCC1c1nc(-c2ccc(CN3CCOCC3)cc2)c[nH]1` (centres unmarked) [Compound 107, 2-(methylthio)-1-(2-(4-(4-(morpholinomethyl)phenyl)-1H-imidazol-2-yl)piperidin-1-yl)propan-1-one], the figure is 1000 to 35000 nM.
